Read-outs that look alike come from different tables or passages of the source.
Legend:
[1] = read-out: IC50 doses reported by other in vitro studies, cited from earlier work
[2] = tested on: MNT-1 melanoma cells; experiment: MTS cell viability assay, MNT-1; format: cell-based; conditions: Homo sapiens, MNT-1, 24 h, read-out: IC50
Procedure: (§1) Cells were cultured at indicated densities for 24 h, medium was removed and the incubation was continued in a fresh culture medium containing various GC2 or DTIC concentrations. In control experiments, cells were grown in a culture medium containing GC2 buffer.
(§2) The standard […] (MTS)-3-(4,5-dimethylthiazol-2-yl)-5-(3-carboxymethoxyphenyl)-2-(4-sulphophenyl)-2H-tetrazolium inner salt solution assay was performed in order to examine the cytotoxic/cytostatic effect of GC2 on melanoma cells. Briefly, 7.5×10^3 cells were seeded in 96-well microtiter plates (Nunc). After an overnight incubation, serial dilutions of GC2 or DTIC were added in triplicate to a final volume of 100 μl. The blank was represented by a culture medium without cells containing the highest GC2 or DTIC concentration. After 24 h of incubation 20 μl MTS was added to each well and all samples were incubated for 3 h at 37° C. An absorbance of each well was read at 450 nm in a microplate reader. A percentage of cell viability was calculated considering that 100% cell viability was represented by an absorbance of untreated samples […]. Alternatively, the number of viable cells was determined by Trypan blue exclusion test. Melanoma cells treated with GC2 were trypsinized and cells negative for blue staining (viable cells) were counted using a hemocytometer. […]

[3] = tested on: SKMel28 melanoma cells; experiment: MTS cell viability assay, SKMel28; format: cell-based; conditions: Homo sapiens, SK-MEL-28, SKMel28, 24 h, read-out: IC50
Procedure: as §1, §2

[4] = tested on: B16F10 melanoma cells; experiment: MTS cell viability assay, B16F10; format: cell-based, murine; conditions: Mus musculus, B16-F10, B16F10, 24 h, read-out: IC50
Procedure: as §1, §2

[5] = tested on: MelJuSo melanoma cells; experiment: MTS cell viability assay, MelJuSo; format: cell-based; conditions: Homo sapiens, MEL-JUSO, 24 h, read-out: IC50
Procedure: as §1, §2

[6] = tested on: B16D2 melanoma cells; experiment: MTS cell viability assay, B16D2; format: cell-based; conditions: B16D2, 24 h, read-out: IC50
Procedure: as §1, §2

Row | IC50 [2] | IC50 [3] | IC50 [4] | IC50 [5] | IC50 [6] | Compound | IC50 ([1]; literature data) | IC50 ([1]; literature data (Lev et al. 2004))
1 | – | – | – | – | – | CCCCCCCCCCCCC/C=C/[C@@H](O)[C@H](CO)NC(C)=O [C2-ceramide] | 100 µM | –
2 | 3000 to 4000 µM | 3000 to 4000 µM | 3000 to 4000 µM | 3000 to 4000 µM | 3000 to 4000 µM | CN(C)N=Nc1[nH]cnc1C(N)=O [DTIC, 5-(3,3-dimethyl-1-triazeno)-imidazole-4-carboxamide, reference compound] | – | 1000 µM

— patent US8957106B2, “Iminosugar treatment of tumors” (The Chancellor, Masters and Scholars of the University of …, priority 2007, dated 2015)
